Assay results reported in US8648076B2, “Cysteine protease inhibitors and their therapeutic applications” (Hybrigenics SA, priority 2005, dated 2014).
Like-named read-outs stand apart in the source and are kept apart here.

Legend:
Format in all cases: biochemical
[1] = biological target: Cathepsin B (Homo sapiens, UniProt P07858); test: Cathepsin B activity assay; conditions: 36 μM z-RR-AMC, 3.6 nM enzyme, 30 min pre-incubation at 25° C., 60 min at 37° C.; sigmoidal fit; AF: Autofluorescent; read-out: cathepB (inhibition of cysteine protease activity)
Procedure: (§1) Cathepsin B was diluted in Cathepsin B buffer (20 mM Tris HCl pH 6.8; 1 mM EDTA; 1 mM DTT). Compounds stocks (100 mM) were stored at −20° C. in DMSO. […] Reactions were performed as duplicates in Black LJL 96 well plates (HE microplates; Molecular Devices; 20 μl final reaction volume). The substrate concentration for cathepsin B specificity assay was 36 μM (z-RR-AMC; Calbiochem). The concentration of the enzyme (Cathepsin B) in specificity assays was 3.6 nM. The concentrations were determined in order to perform specificity assays under initial velocities at fixed substrate concentration. Compounds were pre-incubated with enzymes for 30 minutes at 25° C. Reactions were initiated by addition of substrate to the plates containing the enzymes (+/− compounds) diluted in assay buffer. Reactions were incubated for 60 minutes at 37° C. Reactions were stopped by adding acetic acid (100 mM final). Readings were performed on a Pherastar Fluorescent Reader (BMG). δ Emission 380 nm; 6 Excitation=460 nm. Data (mean values+/− standard deviation) were analyzed as % of control (no compound) and plotted as percentage versus the Log of the compound concentration using GraphPad (Prism). Data were fitted to a sigmoidal model (variable slope).

[2] = biological target: T1, Caspase 3 (Homo sapiens, UniProt P42574); test: Caspase 3 activity assay
T1 sequence (P42574 29-175 limits assumed): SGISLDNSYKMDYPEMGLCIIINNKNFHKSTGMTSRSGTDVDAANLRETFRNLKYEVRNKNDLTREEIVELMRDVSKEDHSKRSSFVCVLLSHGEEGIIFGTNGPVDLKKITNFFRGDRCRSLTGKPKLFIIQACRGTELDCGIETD
T1 sequence (P42574 176-277 limits assumed): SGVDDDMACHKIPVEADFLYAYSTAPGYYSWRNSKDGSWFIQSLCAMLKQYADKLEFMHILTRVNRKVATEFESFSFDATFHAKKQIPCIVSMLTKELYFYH
Procedure: as §1, with “Compounds” for “Cathepsin B was diluted in Cathepsin B buffer (20 mM Tris HCl pH 6.8; 1 mM EDTA; 1 mM DTT). Compounds”, “for caspase 3” for “for cathepsin B”, “was 500 nM (Ac-DEVD-AMC; Promega). […]” for “was 36 μM (z-RR-AMC; Calbiochem). The concentration of the enzyme (Cathepsin B) in specificity assays was 3.6 nM.”, “enzymes (+/−compounds)” for “enzymes (+/− compounds)”, “nm; δ” for “nm; 6”

[3] = biological target: T2, USP8 (Homo sapiens, UniProt P40818); test: USP8 activity assay; conditions: 400 nM Ub-AMC, pH8.8, 30 min pre-incubation at 25° C., 60 min at 37° C.; sigmoidal fit; AF: Autofluorescent; read-out: USP 8 (inhibition of cysteine protease activity)
T2 sequence (P40818 1-1118): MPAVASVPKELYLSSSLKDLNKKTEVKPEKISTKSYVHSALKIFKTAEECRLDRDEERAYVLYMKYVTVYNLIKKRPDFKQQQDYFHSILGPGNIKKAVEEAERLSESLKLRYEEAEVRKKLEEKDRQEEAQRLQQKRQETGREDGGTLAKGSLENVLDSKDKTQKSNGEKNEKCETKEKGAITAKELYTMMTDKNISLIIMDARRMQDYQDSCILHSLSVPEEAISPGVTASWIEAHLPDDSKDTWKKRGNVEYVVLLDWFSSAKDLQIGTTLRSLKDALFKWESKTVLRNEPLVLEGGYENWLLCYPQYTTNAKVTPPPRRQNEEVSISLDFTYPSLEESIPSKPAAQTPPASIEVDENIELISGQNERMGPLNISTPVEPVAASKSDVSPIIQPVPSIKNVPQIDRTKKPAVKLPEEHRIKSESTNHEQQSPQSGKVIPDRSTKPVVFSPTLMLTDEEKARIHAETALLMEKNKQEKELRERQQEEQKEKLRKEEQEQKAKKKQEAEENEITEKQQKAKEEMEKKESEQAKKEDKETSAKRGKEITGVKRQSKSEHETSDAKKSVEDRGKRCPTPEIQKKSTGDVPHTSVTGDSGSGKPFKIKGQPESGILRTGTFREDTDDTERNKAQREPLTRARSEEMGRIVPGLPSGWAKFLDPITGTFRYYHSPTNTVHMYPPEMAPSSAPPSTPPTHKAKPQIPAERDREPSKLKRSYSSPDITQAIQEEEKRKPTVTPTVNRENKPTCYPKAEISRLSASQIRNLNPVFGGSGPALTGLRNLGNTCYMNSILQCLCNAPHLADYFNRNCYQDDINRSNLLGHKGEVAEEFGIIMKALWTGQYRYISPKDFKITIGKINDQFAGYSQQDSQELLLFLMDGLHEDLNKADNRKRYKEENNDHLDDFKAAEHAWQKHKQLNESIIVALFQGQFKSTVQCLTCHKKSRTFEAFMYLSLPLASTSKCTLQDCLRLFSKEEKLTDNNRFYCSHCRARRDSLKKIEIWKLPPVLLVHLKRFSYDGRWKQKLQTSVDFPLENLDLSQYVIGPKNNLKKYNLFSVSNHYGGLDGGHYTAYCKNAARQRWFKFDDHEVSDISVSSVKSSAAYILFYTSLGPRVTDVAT

[4] = 500 nM Ac-DEVD-AMC, 3.2 nM enzyme, 30 min pre-incubation at 25° C., 60 min at 37° C., sigmoidal fit, AF: Autofluorescent, read-out: Casp3 (inhibition of cysteine protease activity)

SMILES | IC50 [1] | IC50 [2, 4] | IC50 [3] | IC50 [2]
N#Cc1nc2c(nc1C#N)C(=O)c1ccccc1C2=O [Example 20, 5,10-dioxo-5,10-dihydro-benzo[g]quinoxaline-2,3-dicarbonitrile] | > 100000 nM | > 100000 nM | > 100000 nM | 
N#Cc1nc2c(nc1O)-c1ccccc1C2=O [Example 6, 3-hydroxy-9-oxo-9H-indeno[1,2-b]pyrazine-2-carbonitrile] | > 100000 nM | 9300 nM | 8400 nM | 
N#Cc1nc2c(nc1C#N)-c1ccccc1C2=NOCCOc1ccccc1 [Example 27a, 9-(2-Phenoxy-ethoxyimino)-9H-indeno[1,2-b]pyrazine-2,3-dicarbonitrile] | > 100000 nM | > 100000 nM | 2300 nM | 
CCOC(=O)CO/N=C1\c2ccccc2-c2nc(C(N)=O)c(C#N)nc21 [Example 37, (3-carbamoyl-2-cyano-indeno[1,2-b]pyrazin-9-ylideneaminooxy)-acetic acid ethyl ester] |  | 1160 nM | 200 nM | 
N#Cc1nc2c(nc1C(N)=O)-c1ccccc1/C2=N\OCC(=O)NCC(=O)O [Example 41, [2-(3-carbamoyl-2-cyano-indeno[1,2-b]pyrazin-9-ylideneaminooxy)-acetylamino]-acetic acid] |  | 1980 nM | 118 nM | 
N#Cc1nc2c(nc1C#N)-c1ccc(Cl)cc1C2=NNC(N)=O [Example 43, 9-[(aminocarbonyl)hydrazono]-7-chloro-9H-indeno[1,2-b]pyrazine-2,3-dicarbonitrile] | > 100000 nM | 64900 nM | 814 nM | 
N#Cc1nc2c(nc1C(N)=O)-c1ccccc1/C2=N\OCC(=O)O [Example 38, (3-carbamoyl-2-cyano-indeno[1,2-b]pyrazin-9-ylideneaminooxy)-acetic acid] |  |  | 272 nM | 3940 nM
CCOC(=O)CNC(=O)CO/N=C1\c2ccccc2-c2nc(C(N)=O)c(C#N)nc21 [Example 40, [2-(3-carbamoyl-2-cyano-indeno[1,2-b]pyrazin-9-ylideneaminooxy)-acetylamino]-acetic acid ethyl ester] |  | 857 nM | 155 nM | 
COc1ccc2c(c1)-c1nc(C#N)c(C#N)nc1C2=O [Example 17a, 6-Methoxy-9-oxo-9H-indeno[1,2-b]pyrazine-2,3-dicarbonitrile] |  | 10000 nM | 4000 nM | 
Cc1cccc2c1Cc1nc(C#N)c(C#N)nc1-2 [Example 16c, 8-Methyl-9H-indeno[1,2-b]pyrazine-2,3-dicarbonitrile] | > 100000 nM | > 100000 nM | > 100000 nM | 
COc1cc2c(cc1OC)-c1nc(C#N)c(C#N)nc1C2=O [Example 17b, 6,7-Dimethoxy-9-oxo-9H-indeno[1,2-b]pyrazine-2,3-dicarbonitrile] | > 100000 nM | 51000 nM | 2500 nM | 
N#Cc1nc2c(nc1O)-c1ccc(Cl)cc1C2=O [Example 42, 7-chloro-3-hydroxy-9-oxo-9H-indeno[1,2-b]pyrazine-2-carbonitrile] | > 100000 nM | > 100000 nM | > 100000 nM | 
N#Cc1nc2c(nc1C(N)=O)-c1ccccc1C2=O [Example 36, 2-cyano-9-oxo-9H-indeno[1,2-b]pyrazine-3-carboxylic acid amide] |  | 402 nM | 205 nM | 
CC(=O)O/N=C1\c2ccccc2-c2nc(C(N)=O)c(C#N)nc21 (single isomer, unassigned) [Example 35, 2-cyano-9-acetoxyimino-9H-indeno[1,2-b]pyrazine-3-carboxylic acid amide] | 11500 nM | 120 nM | 27 nM | 
N#Cc1nc2c(nc1N1CCC(F)(F)CC1)-c1ccccc1C2=O [Example 8, 3-(4,4-difluoro-piperidin-1-yl)-9-oxo-9H-indeno[1,2-b]-pyrazine-2-carbonitrile] | > 100000 nM | > 100000 nM | > 100000 nM | 
N#Cc1nc2c(nc1Cl)-c1ccccc1C2=O [Example 9, 3-chloro-9-oxo-9H-indeno[1,2-b]pyrazine-2-carbonitrile] | > 100000 nM | > 100000 nM | 16200 nM | 
N#Cc1nc2c(nc1C#N)-c1ccc(Cl)cc1C2=O [Example 17g, 7-Chloro-9-oxo-9H-indeno[1,2-b]pyrazine-2,3-dicarbonitrile] | 1500 nM | 290 nM | 96 nM | 
Cc1c(F)ccc2c1C(=O)c1nc(C#N)c(C#N)nc1-2 [Example 30, 7-Fluoro-8-methyl-9-oxo-9H-indeno[1,2-b]pyrazine-2,3-dicarbonitrile] |  | 1070 nM | 316 nM | 
C=CCON=C1c2ccc(Cl)cc2-c2nc(C#N)c(C#N)nc21 [Example 27c, 9-Allyloxyimino-6-chloro-9H-indeno[1,2-b]pyrazine-2,3-dicarbonitrile] |  | 2830 nM | 201 nM | 
N#Cc1nc2c(nc1CC(N)=O)-c1ccccc1C2=O [Example 26, 2-(2-cyano-9-oxo-9H-indeno[1,2-b]pyrazin-3-yl)-acetamide] | > 100000 nM |  | 11000 nM | 
CCON=C1c2ccccc2-c2nc(C#N)c(C#N)nc21 (mixture of isomers) [Example 13d, 9-Ethoxyimino-9H-indeno[1,2-b]pyrazine-2,3-dicarbonitrile] | > 100000 nM | > 100000 nM |  | 
N#Cc1nc2c(nc1C#N)-c1cc(Cl)c(Cl)cc1C2=O [Example 31, 6,7-dichloro-9-oxo-9H-indeno[1,2-b]pyrazine-2,3-dicarbonitrile] |  | 158 nM | 76 nM | 
N#Cc1nc2c(nc1C(N)=O)-c1ccccc1/C2=N\O [Example 11, 2-cyano-9-[hydroxyimino]-9H-indeno[1,2-b]pyrazine-3-carboxylic acid amide] |  | 2300 nM | 730 nM | 
CCO/C(O)=C(\C#N)c1nc2c(nc1C#N)C(=O)c1ccccc1-2 [Example 22, 3-(1-cyano-2-ethoxy-2-hydroxy-vinyl)-9-oxo-9H-indeno[1,2-b]pyrazine-2-carbonitrile] | > 100000 nM | > 100000 nM |  | 
